Data reported in patent US20230084927A1, “GLUCOSE UPTAKE INHIBITORS AND USES THEREOF” (METABOMED LTD., priority 2019, published 2023).

Key:
SDH-WT cells = assay: Cellular / differential toxicity assay (CellTiter-Glo, 3 days); format: cell-based, murine; settings: Mus musculus, 72 h, toxicity, SDH-WT cells, 3 days, CellTiter-Glo; read-out: EC50 (uM) SDH-WT
Procedure: (§1) Identification of compounds that target specifically SDH-deficient cells was done by screening a library of small-molecule by using a differential toxicity screen with SDHB-proficient vs. SDHB-deficient cells (the […] cells were described in Cardaci 2015).
(§2) Cells Used for the Differential Assays: SDH-WT; SDH-KO-HRAS
(§3) Cell Culture Conditions: • Medium: DMEM-F12 medium+1 mM Glutamine+3% FBS • Plates: 96 well plate—Black, clear flat bottom • Incubation time: 3 days • Compound concentration: 10 point dilution starting from 10 uM to 0.0065 uM or a lower range when needed. • Viability assay at the end of incubation: Celltiter-Glo (CTG) from Promega.
(§4) Protocol: • Day 1: Plate cells in 96 well plate together with the appropriate concentration of compound.
(§5) Incubate for 3 days at 37° C. in 5% CO2 tissue culture incubator. • Day 4: Check viability of cells by adding CTG reagent and read luminescence in plate reader
(§6) SDH-WT and SDH-KO cells were grown in DMEM F12 supplemented with 1 mM Glutamine+3% FBS were treated with different concentrations of the indicated compounds in FIG. 11. Cell viability was determined 72 hours later by CellTiter Glue reagent (Promega), the luminescence was measured with ClarioStar reader (BMG) and the EC50s were calculated by Prism.
as §6, with “compounds.” for “compounds in FIG. 11.”
(§7) The cells were grown in DMEM F12 supplemented with 1 mM Glutamine+3% FBS were treated with different concentrations of the indicated compounds. Cell viability was determined 72 hours later by CellTiter Glue reagent (Promega), the luminescence was measured with ClarioStar reader (BMG) and the EC50s were calculated by Prism. Murine SDHB-WT/KO, HRAS transformed isogenic pair (FIG. 12A); UOK269, Human Tumor-derived SDHB-deficient RCC in their WT counterpart with re-expression of SDHB (FIG. 12B); and ACHN, RCC cells, and their SDHB-KO (SDHB CRISPRed out) isogenic cells (FIG. 12C).

[1] = tested on: SDH-KO-HRAS cells (SDHB-deficient); assay: as above; format: cell-based, murine; settings: Mus musculus, 72 h, toxicity, SDH-KO cells, 3 days, CellTiter-Glo; read-out: EC50 (uM) SDH-KO-HTAS-C17
Procedure: as §1, §2, §3, §4, §5, §6
as §6, with “compounds.” for “compounds in FIG. 11.”
as §7

## CC1(C)Cc2nc3sc4c(NCCc5ccc(N6CCCC6=O)cc5)ncnc4c3cc2CO1 [Compound 156]
SDH-WT cells
  EC50: > 10 µM
[1]
  EC50: 1 to 3 µM

## Cc1nc2cc(CCNc3ncnc4c3sc3nc5c(cc34)COC(C)(C)C5)ccc2[nH]1 [Compound 194]
SDH-WT cells
  EC50: < 1 µM
[1]
  EC50: < 1 µM

## COCCOCCOCCOCCOCCOCc1c2c(nc3sc4c(NCCc5ccc6[nH]cnc6c5)ncnc4c13)CC(C)(C)OC2 [Compound 214]
SDH-WT cells
  EC50: > 10 µM
[1]
  EC50: 1 to 3 µM

## CNc1ccc(CCNc2ncnc3c2sc2nc4c(cc23)COC(C)(C)C4)cc1[N+](=O)[O-] [Compound 180]
SDH-WT cells
  EC50: 3 to 10 µM
[1]
  EC50: < 1 µM

## CCN(CC)c1ncnc2c1sc1nc3c(cc12)COC(C)(C)C3 [Compound 297]
SDH-WT cells
  EC50: > 10 µM
[1]
  EC50: 3 to 10 µM

## CN(c1ccc(CCNc2ncnc3c2sc2nc4c(cc23)COC(C)(C)C4)cc1)S(C)(=O)=O [Compound 146]
SDH-WT cells
  EC50: > 10 µM
[1]
  EC50: 3 to 10 µM

## CC1CCN(c2ncnc3c2sc2nc4c(cc23)COC(C)(C)C4)CC1 [Compound 245]
SDH-WT cells
  EC50: > 10 µM
[1]
  EC50: > 10 µM

## CCCCCNc1ncnc2c1sc1nc3c(cc12)COC(C)(C)C3 [Compound 243]
SDH-WT cells
  EC50: 3 to 10 µM
[1]
  EC50: 3 to 10 µM

## COCOCCOCCOCCOCc1c2c(nc3sc4c(NCCc5ccc6[nH]cnc6c5)ncnc4c13)CC(C)(C)OC2 [Compound 213]
SDH-WT cells
  EC50: > 10 µM
[1]
  EC50: 1 to 3 µM

## CC1(C)Cc2nc3sc4c(NCCc5ccc(-c6cncs6)cc5)ncnc4c3cc2CO1 [Compound 148]
SDH-WT cells
  EC50: > 10 µM
[1]
  EC50: < 1 µM

## CCCCCCNc1nc(C)nc2c1sc1nc3c(cc12)COC(C)(C)C3 [Compound 215]
SDH-WT cells
  EC50: > 10 µM
[1]
  EC50: > 10 µM

## CC1(C)Cc2nc3sc4c(N5CCCCC5)ncnc4c3cc2CO1 [Compound 138]
SDH-WT cells
  EC50: > 10 µM
[1]
  EC50: > 10 µM

## CC1(C)Cc2nc3sc4c(NC5CCCCC5)ncnc4c3cc2CO1 [Compound 261]
SDH-WT cells
  EC50: > 10 µM
[1]
  EC50: > 10 µM

## CC1(C)Cc2nc3sc4c(NCCc5ccc6[nH]ccc6c5)ncnc4c3cc2CO1 [Compound 116]
SDH-WT cells
  EC50: 3 to 10 µM
[1]
  EC50: 1 to 3 µM

## COCCCCc1c2c(nc3sc4c(NCCc5ccc6[nH]cnc6c5)ncnc4c13)CC(C)(C)OC2 [Compound 335]
SDH-WT cells
  EC50: 3 to 10 µM
[1]
  EC50: < 1 µM

## CC(=O)N(C)c1ccc(CCNc2ncnc3c2sc2nc4c(cc23)COC(C)(C)C4)cc1 [Compound 158]
SDH-WT cells
  EC50: > 10 µM
[1]
  EC50: < 1 µM

## CC1(C)Cc2nc3oc4c(NCCc5ccc6[nH]cnc6c5)ncnc4c3cc2CO1 [Compound 329]
SDH-WT cells
  EC50: < 1 µM
[1]
  EC50: < 1 µM

## Cc1nc(NCCCN(C)C)c2sc3nc4c(cc3c2n1)COC(C)(C)C4 [Compound 226]
SDH-WT cells
  EC50: > 10 µM
[1]
  EC50: > 10 µM

## CSCc1c2c(nc3sc4c(NCCc5ccc6[nH]cnc6c5)ncnc4c13)CC(C)(C)OC2 [Compound 319, N-(2-(1H-Benzo[d]imidazol-5-yl)ethyl)-8,8-dimethyl-11-((methylthio)methyl)-7,10-dihydro-8H-pyrano[3″,4″:5′,6′]pyrido[3′,2′:4,5]thieno[3,2-d]pyrimidin-4-amine]
SDH-WT cells
  EC50: 1 to 3 µM
[1]
  EC50: < 1 µM

## Cc1nc(NCCc2ccc3[nH]cnc3c2)c2sc3ncccc3c2n1 [Compound 309, N-(2-(1H-Benzo[d]imidazol-5-yl)ethyl)-2-methylpyrido[3′,2′:4,5]thieno[3,2-d]pyrimidin-4-amine]
SDH-WT cells
  EC50: > 10 µM
[1]
  EC50: 3 to 10 µM

## CC1(C)Cc2nc3sc4c(NCCOCCO)ncnc4c3cc2CO1 [Compound 284]
SDH-WT cells
  EC50: > 10 µM
[1]
  EC50: > 10 µM

## CCC(C)Nc1nc(C)nc2c1sc1nc3c(cc12)COC(C)(C)C3 (centres unmarked) [Compound 219]
SDH-WT cells
  EC50: > 10 µM
[1]
  EC50: 3 to 10 µM

## Cc1nc(N2CCC(C)CC2)c2sc3nc4c(cc3c2n1)COC(C)(C)C4 [Compound 263]
SDH-WT cells
  EC50: > 10 µM
[1]
  EC50: > 10 µM

## COc1ccc(CCNc2ncnc3c2sc2ncccc23)cc1OC [Compound 126]
SDH-WT cells
  EC50: 3 to 10 µM
[1]
  EC50: 1 to 3 µM

## CC1(C)Cc2nc3sc4c(NCCc5ccc(NC(=O)C(F)(F)F)c(F)c5)ncnc4c3cc2CO1 [Compound 200]
SDH-WT cells
  EC50: 3 to 10 µM
[1]
  EC50: 1 to 3 µM
